Reference: patent publication US20160158317A1, “Antimicrobial Peptide Variants and Polynucleotides Encoding Same” (Adenium Biotech A/S, priority 2010, published 2016)
Where a SMILES comes first, the peptide text is derived from it. Bridges are numbered along the chain shown (N, C = ends).

Test: Determination of the protein binding (90% serum, 30 kDa filter, HPLC)
Type: in vitro ADME
Conditions: serum
Protocol: Protein binding assays were performed as follows. The purified peptides were mixed with 90% serum and centrifuged through a 30 kDa filter. The ultra-filtrate and the non filtrated serum samples were quantified by HPLC measurements and the protein binding was subsequently calculated.

Row | Compound | fraction unbound
1 | CC(C)[C@@H]1NC(=O)[C@H](CCCNC(=N)N)NC(=O)[C@H](Cc2c[nH]c3ccccc23)NC(=O)[C@@H](NC(=O)[C@H](Cc2ccccc2)NC(=O)CN)CSSC[C@@H](C(=O)N[C@@H](CC(N)=O)C(=O)O)NC(=O)[C@H](CCCNC(=N)N)NC(=O)[C@H](CCCNC(=N)N)NC(=O)[C@H](Cc2ccc(O)cc2)NC(=O)[C@@H]2CSSC[C@H](NC1=O)C(=O)N[C@@H](Cc1c[nH]cn1)C(=O)N[C@@H](Cc1ccc(O)cc1)C(=O)N[C@@H](CCCNC(=N)N)C(=O)N[C@@H](CC(N)=O)C(=O)N[C@@H](CO)C(=O)N[C@@H](C(C)C)C(=O)N[C@@H](CCCNC(=N)N)C(=O)N[C@@H](C(C)C)C(=O)N2 [compound 327] (H-GFCWRVCHYRNSVRVCYRRCN-OH; disulfide 3-20, 7-16 (inferred); N-terminus and C-terminus assumed) | 0.02
2 | CC(C)[C@@H]1NC(=O)CNC(=O)[C@H](CC(N)=O)NC(=O)[C@H](CCCNC(=N)N)NC(=O)[C@H](Cc2ccc(O)cc2)NC(=O)[C@H](CO)NC(=O)[C@@H]2CSSC[C@H](NC(=O)[C@H](CCCCN)NC(=O)[C@H](CCCNC(=N)N)NC1=O)C(=O)N[C@@H](Cc1ccc(O)cc1)C(=O)N[C@@H](CCCNC(=N)N)C(=O)N[C@@H](CCCNC(=N)N)C(=O)N[C@H](C(=O)N[C@@H](CC(N)=O)C(=O)O)CSSC[C@H](NC(=O)[C@H](Cc1ccccc1)NC(=O)CN)C(=O)N[C@@H](Cc1c[nH]c3ccccc13)C(=O)N[C@@H](CCCNC(=N)N)C(=O)N[C@@H](C(C)C)C(=O)N2 [compound 331] (H-GFCWRVCSYRNGVRKCYRRCN-OH; disulfide 3-20, 7-16 (inferred); N-terminus and C-terminus assumed) | 0.05
3 | CC(C)[C@@H]1NC(=O)CNC(=O)[C@H](CC(N)=O)NC(=O)[C@H](CCCNC(=N)N)NC(=O)[C@H](CCCNC(=N)N)NC(=O)[C@H](C(C)C)NC(=O)[C@@H]2CSSC[C@H](NC(=O)[C@H](C(C)C)NC(=O)[C@H](CCCNC(=N)N)NC1=O)C(=O)N[C@@H](Cc1c[nH]cn1)C(=O)N[C@@H](CCCNC(=N)N)C(=O)N[C@@H](CCCNC(=N)N)C(=O)N[C@H](C(=O)N[C@@H](CC(N)=O)C(=O)O)CSSC[C@H](NC(=O)[C@H](Cc1ccccc1)NC(=O)CN)C(=O)N[C@@H](Cc1c[nH]c3ccccc13)C(=O)N[C@@H](CCCNC(=N)N)C(=O)N[C@@H](C(C)C)C(=O)N2 [compound 335] (H-GFCWRVCVRRNGVRVCHRRCN-OH; disulfide 3-20, 7-16 (inferred); N-terminus and C-terminus assumed) | 0.05
4 | CC(C)[C@@H]1NC(=O)[C@@H]2CSSC[C@H](NC(=O)[C@H](C)NC(=O)[C@H](CCCNC(=N)N)NC(=O)[C@H](CCCCN)NC(=O)CNC(=O)[C@H](CC(N)=O)NC(=O)[C@H](CCCNC(=N)N)NC(=O)[C@H](Cc3ccc(O)cc3)NC1=O)C(=O)N[C@@H](Cc1ccc(O)cc1)C(=O)N[C@@H](CCCNC(=N)N)C(=O)N[C@@H](CCCNC(=N)N)C(=O)N[C@H](C(=O)N[C@@H](CC(N)=O)C(=O)O)CSSC[C@H](NC(=O)[C@H](Cc1ccccc1)NC(=O)CN)C(=O)N[C@@H](Cc1c[nH]c3ccccc13)C(=O)N[C@@H](Cc1ccc(O)cc1)C(=O)N[C@@H](C)C(=O)N2 [compound 340] (H-GFCWYACVYRNGKRACYRRCN-OH; disulfide 3-20, 7-16 (inferred); N-terminus and C-terminus assumed) | 0.02
5 | CC(C)[C@@H]1NC(=O)CNC(=O)[C@H](CC(N)=O)NC(=O)[C@H](CCCNC(=N)N)NC(=O)[C@H](Cc2ccc(O)cc2)NC(=O)[C@H](C)NC(=O)[C@@H]2CSSC[C@H](NC(=O)[C@H](C)NC(=O)[C@H](CCCNC(=N)N)NC1=O)C(=O)N[C@@H](Cc1ccc(O)cc1)C(=O)N[C@@H](CCCNC(=N)N)C(=O)N[C@@H](CCCNC(=N)N)C(=O)N[C@H](C(=O)N[C@@H](CC(N)=O)C(=O)O)CSSC[C@H](NC(=O)[C@H](Cc1ccccc1)NC(=O)CN)C(=O)N[C@@H](Cc1c[nH]c3ccccc13)C(=O)N[C@@H](Cc1ccc(O)cc1)C(=O)N[C@@H](C)C(=O)N2 [compound 343] (H-GFCWYACAYRNGVRACYRRCN-OH; disulfide 3-20, 7-16 (inferred); N-terminus and C-terminus assumed) | 0.26
6 | CC(C)C[C@@H]1NC(=O)CNC(=O)[C@H](CC(N)=O)NC(=O)[C@H](CCCNC(=N)N)NC(=O)[C@H](CCCCN)NC(=O)[C@H](C(C)C)NC(=O)[C@@H]2CSSC[C@H](NC(=O)[C@H](C(C)C)NC(=O)[C@H](CCCNC(=N)N)NC1=O)C(=O)N[C@@H](Cc1ccc(O)cc1)C(=O)N[C@@H](CCCNC(=N)N)C(=O)N[C@@H](CCCNC(=N)N)C(=O)N[C@H](C(=O)N[C@@H](CC(N)=O)C(=O)O)CSSC[C@H](NC(=O)[C@H](Cc1ccccc1)NC(=O)CN)C(=O)N[C@@H](Cc1c[nH]c3ccccc13)C(=O)N[C@@H](Cc1ccc(O)cc1)C(=O)N[C@@H]([C@@H](C)O)C(=O)N2 [compound 346] (H-GFCWYTCVKRNGLRVCYRRCN-OH; disulfide 3-20, 7-16 (inferred); N-terminus and C-terminus assumed) | 0.14
7 | CC(C)[C@@H]1NC(=O)CNC(=O)[C@H](CC(N)=O)NC(=O)[C@H](CCCNC(=N)N)NC(=O)[C@H](Cc2ccc(O)cc2)NC(=O)[C@H](C(C)C)NC(=O)[C@@H]2CSSC[C@H](NC(=O)[C@H](C(C)C)NC(=O)[C@H](CCCNC(=N)N)NC1=O)C(=O)N[C@@H](Cc1c[nH]cn1)C(=O)N[C@@H](CCCNC(=N)N)C(=O)N[C@@H](Cc1c[nH]cn1)C(=O)N[C@H](C(=O)N[C@@H](CC(N)=O)C(=O)O)CSSC[C@H](NC(=O)[C@H](Cc1ccccc1)NC(=O)[C@@H](N)CCCNC(=N)N)C(=O)N[C@@H](Cc1c[nH]c3ccccc13)C(=O)N[C@@H](CC(N)=O)C(=O)N[C@@H](C(C)C)C(=O)N2 [compound 359] (H-RFCWNVCVYRNGVRVCHRHCN-OH; disulfide 3-20, 7-16 (inferred); N-terminus and C-terminus assumed) | 0.2
8 | CC(C)[C@@H]1NC(=O)[C@H](CCCNC(=N)N)NC(=O)[C@H](C)NC(=O)CNC(=O)[C@H](CC(N)=O)NC(=O)[C@H](CCCNC(=N)N)NC(=O)[C@H](CCCCN)NC(=O)[C@H](C(C)C)NC(=O)[C@@H]2CSSC[C@H](NC1=O)C(=O)N[C@@H](Cc1ccc(O)cc1)C(=O)N[C@@H](CCCNC(=N)N)C(=O)N[C@@H](CCCNC(=N)N)C(=O)N[C@H](C(=O)N[C@@H](CC(N)=O)C(=O)O)CSSC[C@H](NC(=O)[C@H](Cc1ccccc1)NC(=O)CN)C(=O)N[C@@H](C)C(=O)N[C@@H](Cc1c[nH]cn1)C(=O)N[C@@H](C(C)C)C(=O)N2 [compound 362] (H-GFCAHVCVKRNGARVCYRRCN-OH; disulfide 3-20, 7-16 (inferred); N-terminus and C-terminus assumed) | 0.24
9 | CC(C)[C@@H]1NC(=O)CNC(=O)[C@H](CC(N)=O)NC(=O)[C@H](CCCNC(=N)N)NC(=O)[C@H](CCCCN)NC(=O)[C@H](C)NC(=O)[C@@H]2CSSC[C@H](NC(=O)[C@H](C(C)C)NC(=O)[C@H](CCCNC(=N)N)NC1=O)C(=O)N[C@@H](Cc1ccc(O)cc1)C(=O)N[C@@H](CCCNC(=N)N)C(=O)N[C@@H](CCCNC(=N)N)C(=O)N[C@H](C(=O)N[C@@H](CC(N)=O)C(=O)O)CSSC[C@H](NC(=O)[C@H](Cc1ccccc1)NC(=O)CN)C(=O)N[C@@H](C)C(=O)N[C@@H](CCCNC(=N)N)C(=O)N[C@@H](C(C)C)C(=O)N2 [compound 363] (H-GFCARVCAKRNGVRVCYRRCN-OH; disulfide 3-20, 7-16 (inferred); N-terminus and C-terminus assumed) | 0.2
